Results taken from patent US8173645B2 (Takeda San Diego, Inc., priority 2007, dated 2012).

Molecular target: T1, glucokinase (GK), residues 12-465 of the human enzyme (Homo sapiens, UniProt P35557)
T1 construct: I.D. No. 1 corresponds to residues 12-465 of glucokinase; made in house; host or cells: E. coli DH10b-Tlr
T1 sequence (P35557 with tags, fused parts or gaps isoform P35557-2): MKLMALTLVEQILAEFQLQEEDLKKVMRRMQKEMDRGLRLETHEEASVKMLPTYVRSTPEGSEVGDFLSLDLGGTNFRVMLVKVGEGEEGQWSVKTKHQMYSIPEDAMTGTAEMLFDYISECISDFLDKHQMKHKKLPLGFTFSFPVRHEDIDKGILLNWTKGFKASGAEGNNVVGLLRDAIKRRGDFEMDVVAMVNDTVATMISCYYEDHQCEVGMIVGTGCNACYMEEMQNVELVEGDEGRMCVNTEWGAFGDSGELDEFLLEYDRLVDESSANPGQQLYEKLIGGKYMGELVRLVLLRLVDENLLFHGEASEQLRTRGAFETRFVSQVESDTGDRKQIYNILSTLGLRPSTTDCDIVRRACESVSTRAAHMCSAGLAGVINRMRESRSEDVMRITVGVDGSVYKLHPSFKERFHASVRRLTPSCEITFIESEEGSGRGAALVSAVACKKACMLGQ
Test: Enzymatic glucokinase activity assay (KinaseGlo luminescence, ATP consumption)
Type: biochemical
Details: 5 μM ATP, 5 mM Glucose; for EC50: GK activation, Kact = concentration giving 50% of the maximal increase in GK activity, read-out: pKact; for Emax: calculated maximal gain in GK enzyme activity at a saturating concentration of the compound, read-out: % ACTmax
Procedure, shortened: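 Activation measured as ATP consumption: residual ATP detected by KinaseGlo luminescence after 60 min at room temperature with 5 μM ATP and 5 mM glucose (Hepes pH 7.2, MgCl2, Brij35, DTT, 2% DMSO). Enzyme was recombinant FLAG-tagged protein from E. coli. Eleven-point twofold series were fitted nonlinearly for pKact and % ACTmax.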

Row | Compound | EC50 [nM] | Emax [%]
1 | O=C(Nc1nccs1)[C@H](CC1CCCCC1)N1CCN(S(=O)(=O)C2CCCC2)CC1=O [Example 113, (S)-3-cyclohexyl-2-(4-(cyclopentylsulfonyl)-2-oxopiperazin-1-yl-N-thiazol-2-yl)propanamide] | ≤ 631 | ≥ 119
2 | Cc1noc(C)c1S(=O)(=O)N1CCN([C@@H](CC2CCCCC2)C(=O)Nc2nccs2)C(=O)C1 [Example 173, (S)-3-cyclohexyl-2-(4-(3,5-dimethylisoxazol-4-ylsulfonyl)-2-oxopiperazin-1-yl)-N-(thiazol-2-yl)propanamide] | ≥ 3160 | 74.1 to 97
3 | O=C(Nc1nccs1)[C@H](CC1CCCCC1)N1CCN(S(=O)(=O)c2ccccc2C(F)(F)F)CC1=O [Example 71, (S)-3-cyclohexyl-2-(2-oxo-4-(2-(trifluoromethyl)phenylsulfonyl)piperazin-1-yl)-N-(thiazol-2-yl)propanamide] | ≤ 631 | 108 to 119
4 | CCOC(=O)c1nc(-c2ccc(S(=O)(=O)N3CCN([C@@H](CC4CCCCC4)C(=O)Nc4nccs4)C(=O)C3)s2)no1 [Example 167, (S)-ethyl 3-(5-(4-(3-cyclohexyl-1-oxo-1-(thiazol-2-ylamino)propan-2-yl)-3-oxopiperazin-1-ylsulfonyl)thiophen-2-yl)-1,2,4-oxadiazole-5-carboxylate] | 1580 to 2510 | ≤ 74
5 | O=C(Nc1nccs1)[C@H](CC1CCCCC1)N1CCN(C(=S)Nc2cccc(Cl)c2)CC1=O [Example 81, (S)-2-(4-(3-chlorophenylcarbamothioyl)-2-oxopiperazin-1-yl)-3-cyclohexyl-N-(thiazol-2-yl)propanamide] | 1580 to 2510 | 97.1 to 107
6 | O=C(Nc1nccs1)[C@H](CC1CCCCC1)N1CCN(S(=O)(=O)CCC(F)(F)F)CC1=O [Example 100, (S)-3-cyclohexyl-2-(2-oxo-4-(3,3,3-trifluoropropylsulfonyl)piperazin-1-yl)-N-(thiazol-2-yl)propanamide] | 794 to 1260 | ≥ 119
7 | O=C(Nc1nccs1)[C@H](CC1CCCCC1)N1CCN2[C@@H](CCS2(=O)=O)C1=O [Example 31, (S)-3-Cyclohexyl-N-thiazol-2-yl-2-((S)-1,1,4-trioxo-hexahydro-1λ*6*-thia-5,7a-diaza-inden-5-yl)-propionamide] | ≥ 3160 | 74.1 to 97
8 | CC(=O)N1CCC(CC(C(=O)Nc2nccs2)N2CCN(S(=O)(=O)C3CC3)CC2=O)C1 (stereo not drawn) [Example 20, 3-(1-acetylpyrrolidin-3-yl)-2-(4-(cyclopropylsulfonyl)-2-oxopiperazin-1-yl)-N-(thiazol-2-yl)propanamide] | 794 to 1260 | 108 to 119
9 | CC(=O)Nc1nc(C)c(S(=O)(=O)N2CCN([C@@H](CC3CCCCC3)C(=O)Nc3nccs3)C(=O)C2)s1 [Example 197, (S)-2-(4-(2-acetamido-4-methylthiazol-5-ylsulfonyl)-2-oxopiperazin-1-yl)-3-cyclohexyl-N-(thiazol-2-yl)propanamide] | ≥ 3160 | 97.1 to 107
10 | O=C(Nc1ncc(Cl)s1)[C@@H](CC1CCOCC1)N1CCN(S(=O)(=O)C2CC2)CC1=O [Example 25, (R)-N-(5-chlorothiazol-2-yl)-2-(4-(cyclopropylsulfonyl)-2-oxopiperazin-1-yl)-3-(tetrahydro-2H-pyran-4-yl)propanamide] | ≥ 3160 | ≤ 74
11 | Cc1nc(C)c(S(=O)(=O)N2CCN([C@@H](CC3CCCCC3)C(=O)Nc3nccs3)C(=O)C2)s1 [Example 54, (S)-3-cyclohexyl-2-(4-(2,4-dimethylthiazol-5-ylsulfonyl)-2-oxopiperazin-1-yl)-N-(thiazol-2-yl)propanamide] | ≥ 3160 | ≥ 119
12 | O=C(Nc1ncc(F)s1)[C@H](CC1CCOCC1)N1CCN(S(=O)(=O)c2cccc(F)c2)CC1=O [Example 152, (S)-2-(4-(3-fluorophenylsulfonyl)-2-oxopiperazin-1-yl)-N-(5-fluorothiazol-2-yl)-3-(tetrahydro-2H-pyran-4-yl)propanamide] | ≤ 631 | ≥ 119
13 | Cn1cc(S(=O)(=O)N2CCN([C@@H](CC3CCCCC3)C(=O)Nc3nccs3)C(=O)C2)c(C(F)(F)F)n1 [Example 198, (S)-3-cyclohexyl-2-(4-(1-methyl-3-(trifluoromethyl)-1H-pyrazol-4-ylsulfonyl)-2-oxopiperazin-1-yl)-N-(thiazol-2-yl)propanamide] | 1580 to 2510 | 108 to 119
14 | O=C(Nc1nccs1)[C@H](CC1CCCCC1)N1CCN(C(=S)NC2CC2)CC1=O [Example 129, (S)-3-cyclohexyl-2-(4-(cyclopropylcarbamothioyl)-2-oxopiperazin-1-yl)-N-(thiazol-2-yl)propanamide] | 1580 to 2510 | 97.1 to 107

More lines, now with the values ahead:

Row | EC50 [nM] | Emax [%] | Compound
15 | ≤ 631 | ≥ 119 | Cc1cc(C)cc(S(=O)(=O)N2CCN([C@@H](CC3CCCCC3)C(=O)Nc3nccs3)C(=O)C2)c1 [Example 195, (S)-3-cyclohexyl-2-(4-(3,5-dimethylphenylsulfonyl)-2-oxopiperazin-1-yl)-N-(thiazol-2-yl)propanamide]
16 | 794 to 1260 | ≤ 74 | COc1ccc(Oc2cccc(S(=O)(=O)N3CCN([C@@H](CC4CCCCC4)C(=O)Nc4nccs4)C(=O)C3)c2)cc1 [Example 228, (S)-3-cyclohexyl-2-(4-(3-(4-methoxyphenoxy)phenylsulfonyl)-2-oxopiperazin-1-yl)-N-(thiazol-2-yl)propanamide]
17 | 794 to 1260 | 108 to 119 | O=C(Nc1nccs1)[C@H](CC1CCCCC1)N1CCN(S(=O)(=O)c2cc(Cl)ccc2Cl)CC1=O [Example 56, (S)-3-cyclohexyl-2-(4-(2,5-dichlorophenylsulfonyl)-2-oxopiperazin-1-yl)-N-(thiazol-2-yl)propanamide]
18 | 794 to 1260 | 74.1 to 97 | O=C(c1cccc(S(=O)(=O)N2CCN([C@@H](CC3CCCCC3)C(=O)Nc3nccs3)C(=O)C2)c1)c1ccccn1 [Example 178, (S)-3-cyclohexyl-2-(2-oxo-4-(3-picolinoylphenylsulfonyl)piperazin-1-yl)-N-(thiazol-2-yl)propanamide]
19 | ≥ 3160 | 97.1 to 107 | NC(=O)Nc1ccc(S(=O)(=O)N2CCN([C@@H](CC3CCCCC3)C(=O)Nc3nccs3)C(=O)C2)cc1 [Example 64, (S)-3-cyclohexyl-2-(2-oxo-4-(4-ureidophenylsulfonyl)piperazin-1-yl)-N-(thiazol2-yl)propanamide]
20 | ≤ 631 | 108 to 119 | O=C(Nc1nccs1)[C@H](CC1CCCCC1)N1CCN(S(=O)(=O)c2cccc(F)c2)CC1=O [Example 61, (S)-3-cyclohexyl-2-(4-(3-fluorophenylsulfonyl)-2-oxopiperazin-1-yl)-N-(thiazol-2-yl)propanamide]
21 | 1580 to 2510 | 108 to 119 | Cc1ccc(S(=O)(=O)N2CCN([C@@H](CC3CCCCC3)C(=O)Nc3nccs3)C(=O)C2)cc1 [Example 202, (S)-3-cyclohexyl-2-(2-oxo-4-tosylpiperazin-1-yl)N-(thiazol-2-yl)propanamide]
22 | 794 to 1260 | 74.1 to 97 | O=C(Nc1nccs1)[C@H](CC1CCCCC1)N1CCN(S(=O)(=O)c2ccc(Cl)cc2)CC1=O [Example 43, (S)-2-(4-(4-chlorophenylsulfonyl)-2-oxopiperazin-1-yl)-3-cyclohexyl-N-(thiazol-2-yl)propanamide]
23 | ≤ 631 | ≥ 119 | O=C(Nc1nccs1)[C@H](CC1CCCCC1)N1CCN(S(=O)(=O)c2ccccc2F)CC1=O [Example 205, (S)-3-cyclohexyl-2-(4-(2-fluorophenylsulfonyl)-2-oxopiperazin-1-yl)-N-(thiazol-2-yl)propanamide]
24 | ≥ 3160 | 74.1 to 97 | COC(=O)c1ccc(S(=O)(=O)N2CCN([C@@H](CC3CCCCC3)C(=O)Nc3nccs3)C(=O)C2)o1 [Example 158, (S)-methyl 5-(4-(3-cyclohexyl-1-oxo-1-(thiazol-2-ylamino)propan-2-yl)-3-oxopiperazin-1-ylsulfonyl)furan-2-carboxylate]
25 | ≤ 631 | 97.1 to 107 | O=C(Nc1nccs1)[C@H](CC1CCCCC1)N1CCN(S(=O)(=O)c2ccccc2)CC1=O [Example 79, (S)-3-cyclohexyl-2-(2-oxo-4-(phenylsulfonyl)piperazin-1-yl)-N-(thiazol-2-yl)propanamide]
26 | ≤ 631 | 108 to 119 | Cc1cc(S(=O)(=O)N2CCN([C@@H](CC3CCCCC3)C(=O)Nc3nccs3)C(=O)C2)c(C)o1 [Example 181, (S)-3-cyclohexyl-2-(4-(2,5-dimethylfuran-3-ylsulfonyl)-2-oxopiperazin-1-yl)-N-(thiazol-2-yl)propanamide]
27 | 1580 to 2510 | 97.1 to 107 | CNC(=O)Nc1ccc(S(=O)(=O)N2CCN([C@@H](CC3CCCCC3)C(=O)Nc3nccs3)C(=O)C2)cc1Cl [Example 214, (S)-2-(4-(3-chloro-4-(3-methylureido)phenylsulfonyl)-2-oxopiperazin-1-yl)-3-cyclohexyl-N-(thiazol-2-yl)propanamide]
